Assay results from PMC11148080, “Ru(II)-based complexes containing 2-thiouracil derivatives suppress liver cancer stem cells by targeting NF-κB and Akt/mTOR signaling” (Cell Death Discovery, 2024).

Assays:
WT SV40 MEF = assay: Alamar Blue survival curves; type: cell-based, mouse; details: 72 h
Experimental: (§1) A Quantification of mitochondrial membrane depolarization in HepG2 cells after 24 h of incubation with complex 1 or 2, as determined by flow cytometry. B and C Quantification of PARP (Asp214) cleavage in HepG2 cells after 24 h of incubation with complex 1 (8 μM) or 2 (6 μM), as determined by flow cytometric analysis. MFI: Mean fluorescence intensity. D Survival curves of WT SV40 MEFs and BAD KO SV40 MEFs upon treatment with complexes 1 and 2 and 5-fluorouracil (5-FU, used as a positive control). The curves were obtained from at least three biological replicates carried out in duplicate using the Alamar Blue assay after 72 h of incubation. E DNA fragmentation (sub-G0/G1 cells) and cell cycle distribution (G0/G1, S and G2/M phases) of WT SV40 MEFs and BAD KO SV40 MEFs after 48 h of incubation with complexes 1 (10 μM) and 2 (10 μM) or 5-FU (40 μM). The vehicle (0.2% DMSO) was used as a negative control (CTL). The data are expressed as the mean ± S.E.M. of three biological replicates carried out in duplicate. *P < 0.05 compared to CTL by one-way analysis of variance (ANOVA) followed by Dunnett’s multiple comparisons test.
(§2) The Alamar Blue assay was used to measure cell viability, as previously described. Adherent cells were seeded in 96-well plates at a density of 7 × 10^3 cells per well, and suspended cells were seeded at 3 × 10^4 cells per well. Drugs were added to each well after overnight incubation for adherent cells or immediately after seeding for suspension cells, and incubation continued for an additional 72 h. […] Four hours (for cell lines) or 24 h (for primary cultures) before the end of incubation, 20 μL of resazurin (30 μM) (Sigma‒Aldrich Co. St. Louis, MO, USA) was added to each well. The absorbance at 570 and 600 nm was measured using a SpectraMax 190 microplate reader (Molecular Devices, Sunnyvale, CA, USA).

BAD KO SV40 MEF = assay: Alamar Blue survival curves; type: cell-based, mouse; details: for involvement of proapoptotic protein BAD in cell death: BAD KO SV40 MEF vs WT SV40 MEF; for IC50: BAD KO SV40 MEF, 72 h
Experimental: as §1, §2

[1] = Toxicity parameters in xenografted mice; type: in vivo, C.B-17 SCID mice; details: 2 or 4 mg/kg i.p., 21 days; for changes in body weight or organs (liver, kidney, lung, heart): P > 0.05; for histopathological changes in the hearts: data not shown
Source text: All animals were weighed at the start and end of the experiment to assess toxicological aspects. The animals were continuously examined for anomalies during the trial. The livers, kidneys, lungs, and hearts were removed and weighed before being preserved in 4% formaldehyde, dehydrated in a graded alcohol series, cleaned in xylene, and embedded in paraffin wax. The tissue was sliced into 5 μm thick slices, stained with hematoxylin and/or periodic acid-Schiff (liver and kidney), and histologically evaluated via optical microscopy.

HepG2 cells [2] = assay: Light scattering (FSC/SSC) by flow cytometry; type: cell-based, human; details: 24, 48, 72 h
Source text: Light scattering characteristics measured by flow cytometry were used to analyze cellular parameters such as size and complexity/granularity in HepG2 cells treated with complexes 1 and 2 (Fig. S6A–S6F). Forward light scattering (FSC) was employed as a cell size metric in this experiment, while side scattering (SSC) was used to determine cell complexity/granularity. […] Both morphological changes are associated with cellular apoptosis, corroborating the findings observed in cells stained with May-Grunwald-Giemsa.
For all flow cytometry analyses, cellular fluorescence was measured using a BD LSRFortessa cytometer, BD FACSDiva software (BD Biosciences) and FlowJo software 10 (FlowJo LLC; Ashland, OR, USA). A minimum of 10,000 events were obtained per sample for intracellular staining, and a minimum of 30,000 events per sample were acquired for cell surface protein staining. Doublets were removed using FSC-A vs FCS-H and SCC-A vs SCC-H. Cellular debris was excluded from the analysis.

HepG2 cells [3] = assay: Transwell migration assay; type: cell-based, human; details: same concentrations (0.5 μM complex 1, 0.3 μM complex 2), 24 h
Experimental: Transwell plates were used for the cell migration assay, as previously described. The cells were initially incubated in serum-free media for 24 h. We used uncoated cell culture inserts in 6-well plates ([…]; Corning, USA). The upper chamber received 1.5 mL of serum-free medium, whereas the bottom chamber received 2 mL of medium containing 20% FBS. Cotton swabs were used to remove cells that remained in the top chamber after 24 h. The cells on the bottom surface of the membrane were fixed in 4% paraformaldehyde and stained with 0.5% crystal violet. The cells were imaged and counted using an optical microscope (Leica, DMI8).

HepG2 cells [4] = assay: p62/SQSTM1 expression (autophagy); type: cell-based, human; details: HepG2, 24 h; 8 μM complex 1, 6 μM complex 2
Experimental: To stain intracellular proteins, the cells were harvested and resuspended in 0.5-1 mL of 4% formaldehyde for 10 min at 37 °C. The tube was then placed on ice for 1 min, after which the cells were prechilled and permeabilized using a sequence of 100% (30 min) to 90% (30 min) methanol with gentle mixing. After washing with incubation buffer (0.5% bovine serum albumin in PBS), primary antibodies were added and incubated for 1 h at room temperature. Finally, the cells were washed with PBS, and flow cytometry was used to measure cell fluorescence.
The cells were grown on coverslips in 24-well plates and exposed to the drugs for 24 h. The cells were then washed twice with saline solution, permeabilized with 0.5% Triton X-100, treated with RNase (10 μg/mL), and incubated overnight with a primary fluorochrome-conjugated antibody (for antibody details, see Table S5). The next day, the cells were washed with saline solution and mounted using Fluoromount-G with DAPI (Invitrogen, Thermo Fisher Scientific). The cells were examined using a Leica TCS SP8 confocal microscope (Leica Microsystems, Wetzlar, HE, Germany).

HepG2 cells [5] = assay: Wound healing assay; type: cell-based, human; details: 72 h; 0.5 μM complex 1, 0.3 μM complex 2 (noncytotoxic)
Experimental: Wound healing assays were performed as previously described. The cells were grown to 80–90% confluency in 12-well plates, and a wound was formed by dragging a plastic pipette tip over the cell surface. The remaining cells were washed three times with saline solution to eliminate cell debris before being cultured in serum-free media and treated with drugs. After 0 and 72 h of incubation, the migrating cells in front of the wound were photographed using an optical microscope (Nikon, TS 100). The wound area was calculated using ImageJ software from the National Institutes of Health (NIH, USA).

HepG2 cells [6] = assay: Mitochondrial transmembrane potential (rhodamine 123); type: cell-based, human; details: HepG2, 24 h
Experimental: For apoptosis detection, cell viability was quantified using Annexin V-FITC/PI (FITC Annexin V Apoptosis Detection Kit I, BD Biosciences, San Jose, CA, USA) according to the manufacturer’s instructions. The cells were also stained with rhodamine 123 (5 μg/mL, Sigma Aldrich Co.) for 15 min at 37 °C in the dark to assess the mitochondrial transmembrane potential. After the cells were washed, they were incubated in saline for 30 min in the dark at 37 °C and analyzed by flow cytometry.

F[P-](F)(F)(F)(F)F.O=c1cc[nH]c([S][Ru+])n1.c1ccc(-c2ccccn2)nc1.c1ccc(P(c2ccccc2)c2ccccc2)cc1.c1ccc(P(c2ccccc2)c2ccccc2)cc1 [Complex 1, trans-[Ru(2TU)(PPh3)2(bipy)]PF6]
IC50 (WT SV40 MEF): 5.4 µM | involvement of proapoptotic protein BAD in cell death (BAD KO SV40 MEF): independent of the protein BAD | IC50 (BAD KO SV40 MEF): 4.6 µM | histopathological alterations of kidneys, livers, lungs [1]: minor and/or reversible | changes in body weight or organs (liver, kidney, lung, heart) [1]: No significant changes | histopathological changes in the hearts [1]: No significant changes | cell size/granularity (FSC decrease, SSC increase) (HepG2 cells [2]): caused cell shrinkage | motility, transwell cell migration (HepG2 cells [3]): reduced motility | induction of autophagy (p62/SQSTM1 expression) (HepG2 cells [4]): none of them caused autophagy | HepG2 cell migration, wound healing (HepG2 cells [5]): reduced | mitochondrial depolarization (HepG2 cells [6]): Significant mitochondrial depolarization

Cc1cc(=O)nc([S][Ru+])[nH]1.F[P-](F)(F)(F)(F)F.c1ccc(-c2ccccn2)nc1.c1ccc(P(c2ccccc2)c2ccccc2)cc1.c1ccc(P(c2ccccc2)c2ccccc2)cc1 [Complex 2, trans-[Ru(6m2TU)(PPh3)2(bipy)]PF6]
IC50 (WT SV40 MEF): 5.1 µM | involvement of proapoptotic protein BAD in cell death (BAD KO SV40 MEF): independent of the protein BAD | IC50 (BAD KO SV40 MEF): 4.1 µM | histopathological alterations of kidneys, livers, lungs [1]: minor and/or reversible | changes in body weight or organs (liver, kidney, lung, heart) [1]: No significant changes | histopathological changes in the hearts [1]: No significant changes | cell size/granularity (FSC decrease, SSC increase) (HepG2 cells [2]): caused cell shrinkage | motility, transwell cell migration (HepG2 cells [3]): reduced motility | induction of autophagy (p62/SQSTM1 expression) (HepG2 cells [4]): none of them caused autophagy | HepG2 cell migration, wound healing (HepG2 cells [5]): reduced | mitochondrial depolarization (HepG2 cells [6]): Significant mitochondrial depolarization
